# Measurements published in ChEMBL document CHEMBL1201862, “PubChem BioAssay data set” (2004).
#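 Where inhibition never reached the appropriate level, the endpoint shown equals the highest concentration tested. Otherwise, values were interpolated linearly from a five-concentration, 48-hour dose response in 96-well plates. GI50 = concentration required for 50% inhibition of growth.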 Activity calls are given as the source filed them. No stated cut-off is given here; in the data, active = GI50 up to about 1.1 µM and inactive = higher.
# Assays:
# Test in all cases: growth of human tumour cells (NCI), 48 h
# 786-0 = tested on: 786-0
# A498 = tested on: A498
# A549 = tested on: A549
# ACHN = tested on: ACHN
# BT-549 = tested on: BT-549
# CAKI-1 = tested on: CAKI-1
# CCRF-CEM = tested on: CCRF-CEM
# COLO 205 = tested on: COLO 205
# DU-145 = tested on: DU-145
# EKVX = tested on: EKVX
# HCC 2998 = tested on: HCC 2998
# HCT-116 = tested on: HCT-116
# HCT-15 = tested on: HCT-15
# HOP-62 = tested on: HOP-62
# HOP-92 = tested on: HOP-92
# IGROV-1 = tested on: IGROV-1
# K562 = tested on: K562
# KM12 = tested on: KM12
# LOX IMVI = tested on: LOX IMVI
# M14 = tested on: M14
# MCF7 = tested on: MCF7
# MDA-MB-231 = tested on: MDA-MB-231
# MDA-MB-435 = tested on: MDA-MB-435
# MDA-N = tested on: MDA-N
# MOLT-4 = tested on: MOLT-4
# NCI-H226 = tested on: NCI-H226
# NCI-H23 = tested on: NCI-H23
# NCI-H460 = tested on: NCI-H460
# NCI/ADR-RES = tested on: NCI/ADR-RES
# OVCAR-3 = tested on: OVCAR-3
# OVCAR-4 = tested on: OVCAR-4
# OVCAR-5 = tested on: OVCAR-5
# OVCAR-8 = tested on: OVCAR-8
# PC-3 = tested on: PC-3
# RPMI-8226 = tested on: RPMI-8226
# RXF 393 = tested on: RXF 393
# SF-295 = tested on: SF-295
# SF-539 = tested on: SF-539
# SK-MEL-28 = tested on: SK-MEL-28
# SK-MEL-2 = tested on: SK-MEL-2
# SK-MEL-5 = tested on: SK-MEL-5
# SN12C = tested on: SN12C
# SNB-19 = tested on: SNB-19
# SNB-75 = tested on: SNB-75
# SR = tested on: SR
# SW-620 = tested on: SW-620
# T47D = tested on: T47D
# U-251 = tested on: U-251
# UACC-257 = tested on: UACC-257
# UACC-62 = tested on: UACC-62
# UO-31 = tested on: UO-31
# HL-60 = tested on: HL-60
# HT-29 = tested on: HT-29
# Hs-578T = tested on: Hs-578T
# NCI-H522 = tested on: NCI-H522
# SF-268 = tested on: SF-268
structure (smiles),measurement,setting,value
CSC12c3cc(C)n(-c4ccc([N+](=O)[O-])cc4)c3CC(C)(C)CN1C(=O)C2Oc1ccccc1 (stereo not given),GI50,786-0,> 100 µM (inactive)
same,GI50,A498,10.6 µM (inactive)
same,GI50,A549,46.1 µM (inactive)
same,GI50,ACHN,> 100 µM (inactive)
same,GI50,BT-549,> 100 µM (inactive)
same,GI50,CAKI-1,18.5 µM (inactive)
same,GI50,CCRF-CEM,> 100 µM (inactive)
same,GI50,COLO 205,> 100 µM (inactive)
same,GI50,DU-145,> 100 µM (inactive)
same,GI50,EKVX,36 µM (inactive)
same,GI50,HCC 2998,35.5 µM (inactive)
same,GI50,HCT-116,54.2 µM (inactive)
same,GI50,HCT-15,> 100 µM
same,GI50,HOP-62,> 100 µM (inactive)
same,GI50,HOP-92,24.2 µM (inactive)
same,GI50,IGROV-1,> 100 µM (inactive)
same,GI50,K562,> 100 µM (inactive)
same,GI50,KM12,1.73 µM (inactive)
same,GI50,LOX IMVI,> 100 µM (inactive)
same,GI50,M14,> 100 µM (inactive)
same,GI50,MCF7,28.6 µM (inactive)
same,GI50,MDA-MB-231,96.6 µM (inactive)
same,GI50,MDA-MB-435,19.8 µM (inactive)
same,GI50,MDA-N,> 100 µM (inactive)
same,GI50,MOLT-4,> 100 µM (inactive)
same,GI50,NCI-H226,> 100 µM (inactive)
same,GI50,NCI-H23,74.1 µM (inactive)
same,GI50,NCI-H460,71.9 µM (inactive)
same,GI50,NCI/ADR-RES,> 100 µM (inactive)
same,GI50,OVCAR-3,> 100 µM (inactive)
same,GI50,OVCAR-4,4.72 µM (inactive)
same,GI50,OVCAR-5,> 100 µM (inactive)
same,GI50,OVCAR-8,> 100 µM (inactive)
same,GI50,PC-3,> 100 µM (inactive)
same,GI50,RPMI-8226,31.9 µM (inactive)
same,GI50,RXF 393,> 100 µM (inactive)
same,GI50,SF-295,> 100 µM (inactive)
same,GI50,SF-539,> 100 µM (inactive)
same,GI50,SK-MEL-28,> 100 µM (inactive)
same,GI50,SK-MEL-2,> 100 µM (inactive)
same,GI50,SK-MEL-5,> 100 µM (inactive)
same,GI50,SN12C,> 100 µM (inactive)
same,GI50,SNB-19,80.9 µM (inactive)
same,GI50,SNB-75,10.6 µM (inactive)
same,GI50,SR,> 100 µM (inactive)
same,GI50,SW-620,> 100 µM (inactive)
same,GI50,T47D,32.7 µM (inactive)
same,GI50,U-251,> 100 µM (inactive)
same,GI50,UACC-257,70 µM (inactive)
same,GI50,UACC-62,22.2 µM (inactive)
same,GI50,UO-31,> 100 µM (inactive)
CC1CC[P+](c2ccccc2)(c2ccccc2)c2c1ccc1ccccc21 (stereo not given),GI50,A549,9.1 µM (inactive)
same,GI50,ACHN,14 µM (inactive)
same,GI50,BT-549,1.23 µM (inactive)
same,GI50,CAKI-1,7.85 µM (inactive)
same,GI50,CCRF-CEM,4.3 µM (inactive)
same,GI50,HCC 2998,6.12 µM (inactive)
same,GI50,HCT-116,2.67 µM (inactive)
same,GI50,HCT-15,40.5 µM
same,GI50,HL-60,2.51 µM (inactive)
same,GI50,HOP-92,1.15 µM (inactive)
same,GI50,HT-29,2.32 µM (inactive)
same,GI50,Hs-578T,1.79 µM (inactive)
same,GI50,K562,0.942 µM (active)
same,GI50,KM12,3.13 µM (inactive)
same,GI50,LOX IMVI,2.25 µM (inactive)
same,GI50,M14,5.89 µM (inactive)
same,GI50,MCF7,2.14 µM (inactive)
same,GI50,MDA-MB-435,2.78 µM (inactive)
same,GI50,MOLT-4,6.75 µM (inactive)
same,GI50,NCI-H23,2.4 µM (inactive)
same,GI50,NCI-H460,2.64 µM (inactive)
same,GI50,NCI-H522,1.16 µM (inactive)
same,GI50,OVCAR-4,12.6 µM (inactive)
same,GI50,OVCAR-5,5.81 µM (inactive)
same,GI50,OVCAR-8,2.44 µM (inactive)
same,GI50,PC-3,1.51 µM (inactive)
same,GI50,RXF 393,9.77 µM (inactive)
same,GI50,SF-268,7.89 µM (inactive)
same,GI50,SF-295,3.33 µM (inactive)
same,GI50,SF-539,4.82 µM (inactive)
same,GI50,SK-MEL-2,1.79 µM (inactive)
same,GI50,SK-MEL-5,1.34 µM (inactive)
same,GI50,SN12C,3.94 µM (inactive)
same,GI50,SNB-19,4.07 µM (inactive)
same,GI50,SNB-75,1.79 µM (inactive)
same,GI50,T47D,0.698 µM (active)
same,GI50,UACC-257,0.607 µM (active)
same,GI50,UACC-62,4.13 µM (inactive)
same,GI50,UO-31,27 µM (inactive)
